Experimental data taken from patent US20210346419A1, “COMPOSITIONS AND METHODS FOR DIAGNOSIS AND TREATMENT OF CONDITIONS RELATED TO THE QUALITY OF AGING AND LONGEVITY” (EPITRACKER, INC., priority 2019, published 2021).

Experiments:
4H human cell system = assay: BioMAP Diversity PLUS primary human cell phenotypic profiling, 4H system; assay type: cell-based; details: 6.7 and/or 20 μM, 24 to 72 hours
From the text: (§1) It was hypothesized that, given the compounds' associations with lower risks of comorbidities of aging in long-lived dolphins, the compounds of the embodiments would have relevant activities in human cell systems mimicking conditions related to the quality of aging and longevity. To test this hypothesis, 12 primary human cell systems from the BioMAP Diversity PLUS® panel (Eurofins/DiscoverX, Fremont, Calif.) mimicking inflammation and fibrosis relevant to chronic inflammation, liver disease, respiratory disease, skin disease, wound healing, scarring, allergies, asthma, autoimmune disease, cancer, and cardiovascular disease, were exposed to pure, synthetic forms of the selected compounds at one or two concentrations (6.7 and/or 20 μM). Quantitative measurements of 148 biomarker activities across this broad panel, along with comparative analysis of biological activities from known bioactive agents, were used to predict and compare the efficacy and function of the targeted compounds across these systems compared to non-treated control systems. Activated BioMAP systems were incubated with the targeted compounds for 24 to 72 hours. Biomarker activities were considered significant when biomarker values were outside of the 95th percentile significance envelope and had at least one concentration with an effect size >20% (log 10 ratio) >0.1. FIG. 2 describes the different cell systems.
(§2) The summary is of relevant diseases and tissues treated with selected compounds at 6.7 to 20 μM, based on primary human cell phenotypic profiling.

SAg human cell system = assay: BioMAP Diversity PLUS primary human cell phenotypic profiling, SAg system; assay type: cell-based; details: 6.7 and/or 20 μM, 24 to 72 hours; for Proliferation, Log10 ratio of treated vs. non-treated systems: T cell proliferation
From the text: as §1, §2

MyoF human cell system = assay: BioMAP Diversity PLUS primary human cell phenotypic profiling, MyoF system; assay type: cell-based; details: 6.7 and/or 20 μM, 24 to 72 hours
From the text: as §1, §2

BT human cell system = assay: BioMAP Diversity PLUS primary human cell phenotypic profiling, BT system; assay type: cell-based; details: 6.7 and/or 20 μM, 24 to 72 hours
From the text: as §1, §2

[1] = tested on: HDF3CGF human cell system; assay: BioMAP Diversity PLUS primary human cell phenotypic profiling, HDF3CGF system; assay type: cell-based; details: 6.7 and/or 20 μM, 24 to 72 hours
From the text: as §1, §2

3C human cell system = assay: BioMAP Diversity PLUS primary human cell phenotypic profiling, 3C system; assay type: cell-based; details: 6.7 and/or 20 μM, 24 to 72 hours
From the text: as §1, with “cell systems. […]” for “cell systems.”

KF3CT human cell system = assay: BioMAP Diversity PLUS primary human cell phenotypic profiling, KF3CT system; assay type: cell-based; details: 6.7 and/or 20 μM, 24 to 72 hours
From the text: as §1, §2

BE3C human cell system = assay: BioMAP Diversity PLUS primary human cell phenotypic profiling, BE3C system; assay type: cell-based; details: 6.7 and/or 20 μM, 24 to 72 hours
From the text: as §1, §2

CASM3C human cell system = assay: BioMAP Diversity PLUS primary human cell phenotypic profiling, CASM3C system; assay type: cell-based; details: coronary artery smooth muscle cell proliferation, 6.7 and/or 20 μM, 24 to 72 hours
From the text: as §1, with “cell systems. […]” for “cell systems.”

LPS human cell system = assay: BioMAP Diversity PLUS primary human cell phenotypic profiling, LPS system; assay type: cell-based; details: 6.7 and/or 20 μM, 24 to 72 hours
From the text: as §1, §2

/Mphg human cell system = assay: BioMAP Diversity PLUS primary human cell phenotypic profiling, /Mphg system; assay type: cell-based; details: 6.7 and/or 20 μM, 24 to 72 hours
From the text: as §1, §2

BF4T human cell system = assay: BioMAP Diversity PLUS primary human cell phenotypic profiling, BF4T system; assay type: cell-based; details: 6.7 and/or 20 μM, 24 to 72 hours
From the text: as §1, with “cell systems. […]” for “cell systems.”

[2] = room temperature; cited from earlier work

Structure (SMILES): N=C(N)NCCCC(=O)O [4-guanidinobutanoate]
- MCP-1, Log10 ratio of treated vs. non-treated systems (4H human cell system): −0.12
- CD38, Log10 ratio of treated vs. non-treated systems (SAg human cell system): −0.10
- Proliferation, Log10 ratio of treated vs. non-treated systems (SAg human cell system): −0.13
- Collagen IV, Log10 ratio of treated vs. non-treated systems (MyoF human cell system): 0.13
- IL-17A (sIL-17A), Log10 ratio of treated vs. non-treated systems (BT human cell system): −0.17
- TNF-α (sTNF-α), Log10 ratio of treated vs. non-treated systems (BT human cell system): −0.10
- sIgG, Log10 ratio of treated vs. non-treated systems (BT human cell system): −0.49
- CXCL10, Log10 ratio of treated vs. non-treated systems [1]: −0.11
- CXCL11, Log10 ratio of treated vs. non-treated systems [1]: −0.19
- Collagen III, Log10 ratio of treated vs. non-treated systems [1]: −0.23
- Proliferation, Log10 ratio of treated vs. non-treated systems [1]: −1.09
- TIMP-1, Log10 ratio of treated vs. non-treated systems [1]: −0.14
- VCAM-1 (VCAM1), Log10 ratio of treated vs. non-treated systems [1]: −0.19

Structure (SMILES): CC(=O)N[C@H](C(=O)O)[C@@H](C)O [N-acetylthreonine]
- VEGFR2, Log10 ratio of treated vs. non-treated systems (4H human cell system): −0.16
- sIgG, Log10 ratio of treated vs. non-treated systems (BT human cell system): −0.41

Structure (SMILES): Nc1ncnc2c1ncn2[C@@H]1O[C@H](CSCC[C@H](N)C(=O)O)[C@@H](O)[C@H]1O [S-adenosylhomocysteine (SAH), S-adenosylhomocysteine]
- Proliferation, Log10 ratio of treated vs. non-treated systems (3C human cell system; endothelial cell proliferation): −0.27
- MMP-9, Log10 ratio of treated vs. non-treated systems (KF3CT human cell system): −0.10
- PAI-1, Log10 ratio of treated vs. non-treated systems (KF3CT human cell system): −0.28
- Proliferation, Log10 ratio of treated vs. non-treated systems (SAg human cell system): −0.21
- Alpha-SM actin, Log10 ratio of treated vs. non-treated systems (MyoF human cell system): −0.18
- Collagen I, Log10 ratio of treated vs. non-treated systems (MyoF human cell system): −0.15
- Collagen III, Log10 ratio of treated vs. non-treated systems (MyoF human cell system): −0.27
- Collagen IV, Log10 ratio of treated vs. non-treated systems (MyoF human cell system): 0.31
- VCAM-1, Log10 ratio of treated vs. non-treated systems (MyoF human cell system): −0.12
- CXCL8, Log10 ratio of treated vs. non-treated systems (BE3C human cell system): −0.13
- CXCL11, Log10 ratio of treated vs. non-treated systems (BE3C human cell system): −0.13
- HLA-DR, Log10 ratio of treated vs. non-treated systems (BE3C human cell system): −0.13
- MMP-9, Log10 ratio of treated vs. non-treated systems (BE3C human cell system): −0.24
- sIgG, Log10 ratio of treated vs. non-treated systems (BT human cell system): −0.29
- CXCL10, Log10 ratio of treated vs. non-treated systems [1]: −0.19
- CXCL11, Log10 ratio of treated vs. non-treated systems [1]: −0.25
- Collagen III, Log10 ratio of treated vs. non-treated systems [1]: −0.21
- M-CSF, Log10 ratio of treated vs. non-treated systems [1]: −0.19
- MCP-1, Log10 ratio of treated vs. non-treated systems [1]: −0.14
- PAI-1, Log10 ratio of treated vs. non-treated systems [1]: −0.23
- Proliferation, Log10 ratio of treated vs. non-treated systems [1]: −1.10
- TIMP-1, Log10 ratio of treated vs. non-treated systems [1]: −0.14
- VCAM-1 (VCAM1), Log10 ratio of treated vs. non-treated systems [1]: −0.17

Structure (SMILES): C[C@H](CCC(=O)O)[C@H]1CC[C@H]2[C@@H]3[C@H](O)C[C@@H]4C[C@H](O)CC[C@]4(C)[C@H]3CC[C@]12C [chenodeoxycholate]
- CXCL8, Log10 ratio of treated vs. non-treated systems (SAg human cell system): −0.10

Structure (SMILES): C[C@H](CCC(=O)O)[C@H]1CC[C@H]2[C@@H]3[C@H](O)C[C@@H]4C[C@H](O)CC[C@]4(C)[C@H]3C[C@H](O)[C@]12C [cholate]
- MMP-1, Log10 ratio of treated vs. non-treated systems (BE3C human cell system): −0.10

Structure (SMILES): N[C@@H](CCC(=O)N[C@@H](Cc1c[nH]cn1)C(=O)O)C(=O)O [gamma-glutamylhistidine]
- Tissue factor, Log10 ratio of treated vs. non-treated systems (3C human cell system): −0.12
- Proliferation, Log10 ratio of treated vs. non-treated systems (CASM3C human cell system): 0.11
- CD40, Log10 ratio of treated vs. non-treated systems (LPS human cell system): −0.11
- E-selectin, Log10 ratio of treated vs. non-treated systems (LPS human cell system): −0.11
- CXCL8, Log10 ratio of treated vs. non-treated systems (/Mphg human cell system): −0.15
- MMP-1, Log10 ratio of treated vs. non-treated systems (BE3C human cell system): −0.10
- TNF-α (sTNF-α), Log10 ratio of treated vs. non-treated systems (BT human cell system): −0.18

Structure (SMILES): O=C(O)CNC(=O)c1ccccc1 [hippurate]
- Proliferation, Log10 ratio of treated vs. non-treated systems (CASM3C human cell system): −0.10
- P-selectin, Log10 ratio of treated vs. non-treated systems (4H human cell system): −0.10
- CD40, Log10 ratio of treated vs. non-treated systems (LPS human cell system): −0.11
- CXCL8, Log10 ratio of treated vs. non-treated systems (/Mphg human cell system): −0.12
- MMP-1, Log10 ratio of treated vs. non-treated systems (BE3C human cell system): −0.11

Structure (SMILES): O[C@H]1[C@H](O)[C@@H](O)[C@H](O)[C@@H](O)[C@H]1O [myo-inositol]
- CXCL10, Log10 ratio of treated vs. non-treated systems (KF3CT human cell system): −0.26
- IL-1α, Log10 ratio of treated vs. non-treated systems (KF3CT human cell system): −0.11
- MMP-9, Log10 ratio of treated vs. non-treated systems (KF3CT human cell system): −0.18
- PAI-1, Log10 ratio of treated vs. non-treated systems (KF3CT human cell system): −0.27
- Eotaxin-3, Log10 ratio of treated vs. non-treated systems (BF4T human cell system): −0.19
- MCP-1, Log10 ratio of treated vs. non-treated systems (BF4T human cell system): −0.21
- MCP-1, Log10 ratio of treated vs. non-treated systems (4H human cell system): −0.13
- Proliferation, Log10 ratio of treated vs. non-treated systems (SAg human cell system): −0.20
- IL-1α, Log10 ratio of treated vs. non-treated systems (/Mphg human cell system): −0.10
- Collagen III, Log10 ratio of treated vs. non-treated systems (MyoF human cell system): −0.11
- Collagen IV, Log10 ratio of treated vs. non-treated systems (MyoF human cell system): 0.24
- VCAM-1, Log10 ratio of treated vs. non-treated systems (MyoF human cell system): −0.11
- CXCL8, Log10 ratio of treated vs. non-treated systems (BE3C human cell system): −0.26
- CXCL10, Log10 ratio of treated vs. non-treated systems (BE3C human cell system): −0.58
- CXCL11, Log10 ratio of treated vs. non-treated systems (BE3C human cell system): −0.28
- EGFR, Log10 ratio of treated vs. non-treated systems (BE3C human cell system): −0.11
- HLA-DR, Log10 ratio of treated vs. non-treated systems (BE3C human cell system): −0.10
- ICAM-1, Log10 ratio of treated vs. non-treated systems (BE3C human cell system): −0.11
- MMP-9, Log10 ratio of treated vs. non-treated systems (BE3C human cell system): −0.25
- PAI-1, Log10 ratio of treated vs. non-treated systems (BE3C human cell system): −0.18
- IL-17A (sIL-17A), Log10 ratio of treated vs. non-treated systems (BT human cell system): −0.12
- TNF-α (sTNF-α), Log10 ratio of treated vs. non-treated systems (BT human cell system): −0.21
- sIL-2, Log10 ratio of treated vs. non-treated systems (BT human cell system): −0.16
- sIL-17F, Log10 ratio of treated vs. non-treated systems (BT human cell system): −0.15
- sIgG, Log10 ratio of treated vs. non-treated systems (BT human cell system): −0.62

Structure (SMILES): COc1cc(C(O)C(=O)O)ccc1O (stereo not shown) [vanillylmandelate (VMA), vanillylmandelate]
- CXCL8, Log10 ratio of treated vs. non-treated systems (/Mphg human cell system): −0.18

Structure (SMILES): O=c1[nH]c(=O)c2ncn([C@@H]3O[C@H](CO)[C@@H](O)[C@H]3O)c2[nH]1 [xanthosine]
- Physical state and stability [2]: solid that is stable at room temperature
- CD40, Log10 ratio of treated vs. non-treated systems (LPS human cell system): −0.12
- Tissue factor, Log10 ratio of treated vs. non-treated systems (LPS human cell system): −0.13
- CXCL8, Log10 ratio of treated vs. non-treated systems (/Mphg human cell system): −0.13
